Data from publication PMC9804387, “Substrate Peptidomimetic Inhibitors of P. falciparum Plasmepsin X with Potent Antimalarial Activity” (Chemmedchem, 2022).
“And” between values parts separate entries of the source, which are not always exact repeats. Identical values can stand only once. Counter-ions that a name gives are not always drawn. Like-named read-outs stand apart in the source and are kept apart here.

Experiments:
in vitro = format: cell-based; details: human
Procedure: HepG2 Cytotoxicity Assay. HepG2 cytotoxicity assays were performed as previously described.[41] Briefly, human hepatocyte HepG2 cells were cultured in DMEM supplemented with 10 % FCS at 37 °C and 5 % CO2 in a humidified incubator. Cells were seeded at 1000 cells/well in 50 μL in 384‐well plates (Grenier) and compounds incubated in ten‐point 1 : 2‐fold dilution series for 48 h. Cytotoxicity was determined using Cell Titer‐Glo (Promega), normalized to DMSO alone controls (100 % viability) and control compound Bortezomib (0 % viability at 10 μM). CC50 values were calculated by GraphPad Prism (8.0.2) software using a nonlinear regression four‐parameter fit analysis with the sigmoidal dose response (variable slope).

[1] = test system: P. falciparum (Pf) 3D7 parasites; test: P. falciparum LDH viability assay; format: cell-based; details: for EC50: Plasmodium falciparum, 3D7, 72 h, LDH activity, 72 h at 37 °C, mean and SD of 3 independent experiments; for fold decrease in parasite activity compared to PMX inhibition: Pf 3D7 EC50 versus PMX IC50
Procedure: P. falciparum LDH Viability Assay. P. falciparum LDH viability assays were performed as previously described.[40] Briefly, a ten‐point 1 : 3‐fold dilution series of the compounds were pre‐dispensed in 384‐well assay plates (Grenier), and RPMI/AlbuMAX growth media inoculated with synchronized ring stage P. falciparum parasites. 10 mM compound stocks were transferred into the assay plates such that the starting concentration was 10 μM. Plates were incubated for 72 h and then frozen at −80 °C overnight. Lactate dehydrogenase (LDH) activity was quantified with APAD by measuring absorbance of NBT at 650 nm. Data were normalized to percent growth inhibition using the positive control of 0.1 % DMSO alone and the negative control of 100 nM chloroquine. Half‐maximal effective concentration (EC50) values were calculated by GraphPad Prism (8.0.2) software using a nonlinear regression four‐parameter fit analysis using a sigmoidal dose response (variable slope).

recombinant Pf PMX = biological target: T1, recombinant Pf PMX (Plasmodium falciparum, UniProt Q8IAS0); test: PMX biochemical FRET assay (Rh2N fluorogenic substrate cleavage); details: for IC50: 37 °C
T1 construct: made in house
T1 sequence (Q8IAS0 222-573): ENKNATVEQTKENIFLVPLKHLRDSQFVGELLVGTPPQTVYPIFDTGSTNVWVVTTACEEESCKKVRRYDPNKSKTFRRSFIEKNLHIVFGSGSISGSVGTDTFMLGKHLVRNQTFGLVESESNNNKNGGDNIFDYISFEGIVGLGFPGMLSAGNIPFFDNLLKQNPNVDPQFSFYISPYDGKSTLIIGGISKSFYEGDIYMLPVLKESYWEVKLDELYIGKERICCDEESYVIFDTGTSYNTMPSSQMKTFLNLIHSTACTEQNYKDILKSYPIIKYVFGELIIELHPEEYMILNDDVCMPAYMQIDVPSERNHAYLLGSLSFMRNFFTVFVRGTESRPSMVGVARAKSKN
Procedure: FRET Protease Assays. FRET protease assays were performed as previously described.[19, 20, 27, 28] Briefly, ten‐point 1 : 3‐fold dilution series of the compounds were prepared in 384‐well black low volume assay plates (Greiner) using an Echo555 (Labcyte). 10 mM compound stocks were transferred into assay plates such that the starting concentration was 90 μM (Pv PMV assays), 11.25 μM (renin, cathepsin D and BACE‐1 assays) or 100 nM and 10 μM (Pf PMX and Pf PMIX assays). All wells were backfilled to 200 nL DMSO such that the DMSO concentration remained constant across the assay plates (1 % final). All compound potency assays were conducted in 20 μL total volume. For each assay, 10 μL of recombinant enzymes in respective assay buffers (Table S2) were dispensed into compound containing assay plates using a Multidrop‐Combi dispenser and allowed to incubate for 15 min. Recombinant Pf PMX, Pf PMIX and Pv PMV were expressed as previously described,[23, 27, 28] and recombinant human aspartyl proteases were purchased commercially. 10 μL of the fluorogenic peptide substrates incubated at 37 °C for the duration and conditions noted in Table S2. Samples were excited at 340 nm and fluorescence emission measured at 492 nm using an Envision fluorescence plate reader (Perkin‐Elmer). The 0 % inhibition control contained DMSO alone (1 % final) and the 100 % inhibition control was in the absence of enzyme. […]
(§1) Table S2 . P rotease FRET assay conditions.
(§2) PMX as sa y PMIX PM V assay Renin assay Cathepsin D assay BA CE-1 assay E nzy me prot e as e 0.25 nM pro te a se 6 nM prot e as e q ua nti ty 0.1 nM pro t ea se 1.5 nM pro t ea se 2.5 nM pro t ea se 3 nM (Pro te os #R-001) ( Athe ns Re sea rc h (Sigma #S4195) […]
(§3) 25mM so di um acetate, 100 mM 25 mM M E S, 25 m M 50 mM Tr is, 100 mM 100 mM so di u m 20 mM so dium Buffer acetate, 0.005% sodium chloride and Tris-HCl, 0.01% N aC l, 0. 1% Bri j-35, acetate 0.02% scetate, 0.05% […]
(§4) Sub str at e DABCYL- ( DA BC YL ) - DABCYL- DABCYL-(γ- Ab u) - E[E(EDANS)]KPIL […]

cathepsin D = biological target: T2, cathepsin D (Homo sapiens, UniProt P07339); test: Cathepsin D FRET protease assay; format: biochemical; details: mean and SD of 4 replicate FRET experiments, 37 °C; highest concentration tested 11 μM
T2 construct: purchased Athens Research 16-12-030104
T2 sequence (P07339 65-412): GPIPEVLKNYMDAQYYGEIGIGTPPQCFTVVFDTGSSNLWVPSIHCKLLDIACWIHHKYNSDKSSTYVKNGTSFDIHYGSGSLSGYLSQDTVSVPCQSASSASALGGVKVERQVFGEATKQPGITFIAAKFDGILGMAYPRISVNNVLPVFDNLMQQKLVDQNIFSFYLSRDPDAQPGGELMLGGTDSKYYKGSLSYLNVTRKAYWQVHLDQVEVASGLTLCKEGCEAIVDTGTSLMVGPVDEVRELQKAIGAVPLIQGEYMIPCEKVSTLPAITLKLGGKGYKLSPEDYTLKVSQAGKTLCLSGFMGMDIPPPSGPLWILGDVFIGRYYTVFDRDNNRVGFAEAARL

recombinant Pf PMIX = biological target: T3, recombinant Pf PMIX (Plasmodium falciparum, UniProt Q8ILG2); test: PMIX FRET protease assay; format: biochemical, P. falciparum; details: mean and SD of 4 replicate FRET experiments, 37 °C
T3 construct: made in house
T3 sequence (Q8ILG2 whole entry): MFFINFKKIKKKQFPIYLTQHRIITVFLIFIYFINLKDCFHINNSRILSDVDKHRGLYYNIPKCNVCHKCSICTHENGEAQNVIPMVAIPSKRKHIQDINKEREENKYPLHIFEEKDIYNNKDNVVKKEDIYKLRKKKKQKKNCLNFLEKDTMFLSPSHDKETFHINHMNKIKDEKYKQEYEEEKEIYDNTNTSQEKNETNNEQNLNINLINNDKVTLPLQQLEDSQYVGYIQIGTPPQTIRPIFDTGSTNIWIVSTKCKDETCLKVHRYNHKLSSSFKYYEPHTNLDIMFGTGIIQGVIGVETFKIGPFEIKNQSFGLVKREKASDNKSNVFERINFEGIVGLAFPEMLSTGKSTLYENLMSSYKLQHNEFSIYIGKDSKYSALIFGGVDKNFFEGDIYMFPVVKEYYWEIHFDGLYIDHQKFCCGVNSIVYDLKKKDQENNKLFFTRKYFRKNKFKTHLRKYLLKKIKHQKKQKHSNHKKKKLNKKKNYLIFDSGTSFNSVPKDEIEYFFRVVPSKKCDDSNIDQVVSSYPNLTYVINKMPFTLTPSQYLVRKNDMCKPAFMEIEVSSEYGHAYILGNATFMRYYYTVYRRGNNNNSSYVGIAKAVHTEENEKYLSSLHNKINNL
Procedure: (§5) FRET Protease Assays. FRET protease assays were performed as previously described.[19, 20, 27, 28] Briefly, ten‐point 1 : 3‐fold dilution series of the compounds were prepared in 384‐well black low volume assay plates (Greiner) using an Echo555 (Labcyte). 10 mM compound stocks were transferred into assay plates such that the starting concentration was 90 μM (Pv PMV assays), 11.25 μM (renin, cathepsin D and BACE‐1 assays) or 100 nM and 10 μM (Pf PMX and Pf PMIX assays). All wells were backfilled to 200 nL DMSO such that the DMSO concentration remained constant across the assay plates (1 % final). All compound potency assays were conducted in 20 μL total volume. For each assay, 10 μL of recombinant enzymes in respective assay buffers (Table S2) were dispensed into compound containing assay plates using a Multidrop‐Combi dispenser and allowed to incubate for 15 min. Recombinant Pf PMX, Pf PMIX and Pv PMV were expressed as previously described,[23, 27, 28] and recombinant human aspartyl proteases were purchased commercially. 10 μL of the fluorogenic peptide substrates incubated at 37 °C for the duration and conditions noted in Table S2. Samples were excited at 340 nm and fluorescence emission measured at 492 nm using an Envision fluorescence plate reader (Perkin‐Elmer). The 0 % inhibition control contained DMSO alone (1 % final) and the 100 % inhibition control was in the absence of enzyme. Half‐maximal inhibitory concentration (IC50) values were calculated by GraphPad Prism (8.0.2) software using a nonlinear regression four‐parameter fit analysis using a sigmoidal dose response (variable slope).
as §1, §2, §3, §4

recombinant Pv PMV = biological target: T4, recombinant Pv PMV (Plasmodium vivax, UniProt A5K302); test: PMV FRET protease assay; format: biochemical
T4 construct: made in house
T4 sequence (A5K302 35-536): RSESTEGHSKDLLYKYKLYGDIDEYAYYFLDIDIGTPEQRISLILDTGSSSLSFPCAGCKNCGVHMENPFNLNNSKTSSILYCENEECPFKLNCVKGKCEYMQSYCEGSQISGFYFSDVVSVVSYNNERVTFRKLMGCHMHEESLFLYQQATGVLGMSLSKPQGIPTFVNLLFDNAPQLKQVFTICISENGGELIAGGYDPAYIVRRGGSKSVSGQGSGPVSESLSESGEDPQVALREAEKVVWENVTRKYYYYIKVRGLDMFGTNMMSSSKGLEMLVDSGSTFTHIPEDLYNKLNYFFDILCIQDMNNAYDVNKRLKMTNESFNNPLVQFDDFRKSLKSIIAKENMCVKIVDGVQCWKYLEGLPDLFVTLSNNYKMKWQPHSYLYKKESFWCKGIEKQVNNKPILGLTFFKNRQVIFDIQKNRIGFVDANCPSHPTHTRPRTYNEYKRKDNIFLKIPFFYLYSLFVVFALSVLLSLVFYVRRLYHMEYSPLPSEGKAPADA
Procedure: as §5, §1, §2, §3, §4

BACE‐1 = biological target: T5, BACE‐1 (Homo sapiens, UniProt P56817); test: BACE-1 FRET protease assay; format: biochemical; details: mean and SD of 4 replicate FRET experiments, 37 °C; highest concentration tested 11 μM
T5 construct: purchased Sigma S4195
T5 sequence (P56817 46-460 limits assumed): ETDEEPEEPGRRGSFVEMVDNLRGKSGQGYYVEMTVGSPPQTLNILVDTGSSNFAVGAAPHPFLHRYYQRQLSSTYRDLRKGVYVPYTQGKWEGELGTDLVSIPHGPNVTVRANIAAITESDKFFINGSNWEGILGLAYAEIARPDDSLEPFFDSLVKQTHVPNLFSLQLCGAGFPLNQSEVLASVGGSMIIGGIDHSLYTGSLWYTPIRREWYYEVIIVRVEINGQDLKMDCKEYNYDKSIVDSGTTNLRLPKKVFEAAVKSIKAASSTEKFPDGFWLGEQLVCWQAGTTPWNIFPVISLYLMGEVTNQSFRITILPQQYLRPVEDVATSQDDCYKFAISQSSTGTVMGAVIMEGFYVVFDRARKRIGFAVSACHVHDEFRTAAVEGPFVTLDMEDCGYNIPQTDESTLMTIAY

renin = biological target: T6, renin (Homo sapiens, UniProt P00797); test: Renin FRET protease assay; format: biochemical; details: mean and SD of 4 replicate FRET experiments, 37 °C; highest concentration tested 11 μM
T6 construct: purchased Proteos R-001
T6 sequence (P00797 67-406): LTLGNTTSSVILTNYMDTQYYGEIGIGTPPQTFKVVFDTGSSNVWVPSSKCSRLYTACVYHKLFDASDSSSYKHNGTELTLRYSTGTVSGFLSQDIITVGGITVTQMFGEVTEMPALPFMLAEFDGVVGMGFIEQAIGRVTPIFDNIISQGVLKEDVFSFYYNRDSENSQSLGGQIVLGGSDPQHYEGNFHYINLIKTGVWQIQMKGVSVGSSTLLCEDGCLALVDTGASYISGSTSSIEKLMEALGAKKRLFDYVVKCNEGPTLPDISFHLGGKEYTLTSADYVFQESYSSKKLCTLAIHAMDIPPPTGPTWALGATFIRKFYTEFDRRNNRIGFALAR

[2] = recombinant PMX, fluorogenic substrate (Rh2N) cleavage, 4 h, mean and SD of 4 replicates (Tables 1, 2)
[3] = Table 3, mean and SD of 4 replicate FRET experiments

| SMILES | CC50 at 48 h (in vitro) [nM] | EC50 [1] [nM] | IC50 (recombinant Pf PMX; [2]) | IC50 (cathepsin D) [nM] | IC50 (recombinant Pf PMIX) [nM] | IC50 (recombinant Pv PMV) [nM] | IC50 (BACE‐1) [nM] | IC50 (recombinant Pf PMX; [3]) [nM] | IC50 (renin) [nM] | fold decrease in parasite activity compared to PMX inhibition [1] | fold less active against PMX than the L‐configured Ser (38) counterpart (recombinant Pf PMX; PMX IC50 compared with 38) [fold] | IC50 (recombinant Pv PMV; Table S2, positive control activity in assay, 90 min, read-out: Positive control IC50 in PMV assay) [nM] |
| --- | --- | --- | --- | --- | --- | --- | --- | --- | --- | --- | --- | --- |
| CC(NCC(O)C(Cc1ccccc1)NC(=O)C(Cc1ccccc1)NC(=O)C(CO)NC(=O)OCc1ccccc1)c1ccccc1 (stereo not drawn) [Compd 22, Cbz‐Ser‐Phe‐Phe‐HEA‐Bn(CH3)⋅TFA] | > 40000 | 1400 | < 1000 nM and 190 nM and 170 nM |  |  |  |  |  |  |  |  |  |
| CC(C)CC(NC(=O)C(Cc1ccccc1)NC(=O)C(CO)NC(=O)OCc1ccccc1)C(O)CNC(C)c1ccccc1 (stereo not drawn) [Compd 23, Cbz‐Ser‐Phe‐Leu‐HEA‐Bn(CH3)⋅TFA] | 30000 | 6000 | > 1000 nM and 3600 nM |  |  |  |  |  |  |  |  |  |
| CC(C)CC(NC(=O)C(CO)NC(=O)OCc1ccccc1)C(=O)NC(Cc1ccccc1)C(O)CNC(C)c1ccccc1 (stereo not drawn) [Compd 24, Cbz‐Ser‐Leu‐Phe‐HEA‐Bn(CH3)⋅TFA] | > 40000 | 1600 | < 1000 nM and 200 nM |  |  |  |  |  |  |  |  |  |
| CC(C)CC(NC(=O)C(CO)NC(=O)OCc1ccccc1)C(=O)NC(CC(C)C)C(O)CNC(C)c1ccccc1 (stereo not drawn) [Compd 25, Cbz‐Ser‐Leu‐Leu‐HEA‐Bn(CH3)⋅TFA] | > 40000 | > 11000 | > 1000 nM and 3500 nM |  |  |  |  |  |  |  |  |  |
| CCC(C)C(NC(C)=O)C(=O)NC(CO)C(=O)NC(Cc1ccccc1)C(O)CNC(C)c1ccccc1 (stereo not drawn) [Compd 26, Ac‐Ile‐Ser‐Phe‐HEA‐Bn(CH3)⋅TFA] | > 40000 | 190 | 10 nM | > 11000 | 2700 | > 90000 | 2900 | 10 | > 11000 |  |  |  |
| CC(=O)NC(CC(N)=O)C(=O)NC(CO)C(=O)NC(Cc1ccccc1)C(O)CNC(C)c1ccccc1 (stereo not drawn) [Compd 27, Ac‐Asn‐Ser‐Phe‐HEA‐Bn(CH3)⋅TFA] | > 40000 | 6700 | 580 nM |  |  |  |  |  |  | approximately 10 fold |  |  |
| CC(=O)NC(CO)C(=O)NC(CO)C(=O)NC(Cc1ccccc1)C(O)CNC(C)c1ccccc1 (stereo not drawn) [Compd 28, Ac‐Ser‐Ser‐Phe‐HEA‐Bn(CH3)⋅TFA] | > 40000 | > 11000 | 580 nM |  |  |  |  |  |  | approximately 10 fold |  |  |
| CC(C)[C@H](NC(=O)OCc1ccccc1)C(=O)N[C@@H](Cc1ccccc1)[C@H](O)CN[C@H](C)c1ccccc1 [Compd 34, Cbz‐Val‐Phe‐HEA‐Bn(CH3)] | 13000 | 50 | 10 nM | > 11000 | 6900 | > 90000 | > 11000 | 10 | > 11000 |  |  |  |
| CC(C)C[C@H](NC(=O)OCc1ccccc1)C(=O)N[C@@H](Cc1ccccc1)[C@H](O)CN[C@H](C)c1ccccc1 [Compd 35, Cbz‐Leu‐Phe‐HEA‐Bn(CH3)] | 18000 | 600 | 180 nM |  |  |  |  |  |  | approximately 6 fold |  |  |
| C[C@@H](NC[C@@H](O)[C@H](Cc1ccccc1)NC(=O)[C@H](Cc1ccccc1)NC(=O)OCc1ccccc1)c1ccccc1 [Compd 36, Cbz‐Phe‐Phe‐HEA‐Bn(CH3)] | > 40000 | 650 | 70 nM |  |  |  |  |  |  | approximately 6 fold |  |  |
| CCC(C)[C@H](NC(=O)OCc1ccccc1)C(=O)N[C@@H](Cc1ccccc1)[C@H](O)CN[C@H](C)c1ccccc1 (stereo partly drawn) [Compd 37, Cbz‐Ile‐Phe‐HEA‐Bn(CH3)] | > 40000 | 140 | 20 nM | 200 | 14700 | > 90000 | > 11000 |  | > 11000 |  |  |  |
| CC(=O)N[C@@H](CO)C(=O)N[C@@H](Cc1ccccc1)[C@H](O)CN[C@H](C)c1ccccc1 [Compd 39, Ac‐Ser‐Phe‐HEA‐Bn(CH3)⋅TFA] | > 40000 | 6200 | 3300 nM |  |  |  |  |  |  |  |  |  |
| C[C@@H](NC[C@@H](O)[C@H](Cc1ccccc1)NC(=O)[C@@H](CO)NC(=O)OCc1ccccc1)c1ccccc1 [Compd 40, Cbz‐D‐Ser‐Phe‐HEA‐Bn(CH3)⋅TFA] | > 40000 | 570 | 330 nM |  |  |  |  |  |  |  | 7 |  |
| CC(C)C[C@H](NC(=O)[C@H](CO)NC(=O)OCc1ccccc1)[C@H](O)CN[C@H](C)c1ccccc1 [Compd 41, Cbz‐Ser‐Leu‐HEA‐Bn(CH3)⋅TFA] | > 40000 | 3200 | 1800 nM |  |  |  |  |  |  |  |  |  |
| CC(O)[C@H](NC(=O)OCc1ccccc1)C(=O)N[C@@H](Cc1ccccc1)[C@H](O)CN[C@H](C)c1ccccc1 (stereo partly drawn) [Compd 42, Cbz‐Thr‐Phe‐HEA‐Bn(CH3)⋅TFA] | > 40000 | 260 | 160 nM |  |  |  |  |  |  | 2 fold |  |  |
| CC(C)C[C@H](NC(=O)[C@@H](NC(=O)[C@H](CCON=C(N)N)NC(=O)OCc1ccccc1)C(C)C)[C@@H](O)CC(=O)NCCc1ccccc1 [WEHI-842, reference compound] |  |  |  |  |  |  |  |  |  |  |  | 17 |
